IC50 data for nine compounds are collected here from ChEMBL document CHEMBL1133130, “Synthesis and evaluation of geldanamycin-testosterone hybrids” (Bioorg Med Chem Lett, 2000).

Type in all cases: functional, cell-based
One assay concerns COLO 205. The experiment in a line: Compound was evaluated for cytotoxicity against COLO 205 colon cancer cells ([…] cells). The following applies: Homo sapiens.
Assay [1] relates to LNCaP. The experiment in a line: Compound was evaluated for cytotoxicity against LNCaP prostate cancer cells. To be noted: Homo sapiens.
The subject of assay [2] is LNCaP. The experiment in a line: Compound was evaluated for cytotoxicity against LNCaP prostate cancer cells (AR dependent cells). To be noted: Homo sapiens.
A short description of assay [3]: Compound was evaluated for cytotoxicity against LAPC4 prostate cancer cells (AR dependent cells). To be noted: Homo sapiens.
Assay [4] can be described thus: Compound was evaluated for cytotoxicity against MDA-468 breast cancer cells ([…] cells). The following applies: Homo sapiens, MDA-MB-468.
In a further assay the test system is MCF7. The assay is described as follows: Compound was evaluated for cytotoxicity against MCF-7 breast cancer cells ([…] cells). To be noted: Homo sapiens.
The test system of the next assay is PC-3. The assay is described as follows: Compound was evaluated for cytotoxicity against PC3 prostate cancer cells ([…] cells). The following applies: Homo sapiens.

Each structure is given as a SMILES string. Bounds are passed on as bounds.

A word on the IC50: it is the concentration needed to halve the response being measured. Read a high IC50 as lower potency.

With `COC1=C2C[C@H](C)C[C@H](OC)[C@@H](O)[C@H](C)/C=C(\C)C[C@H](OC(N)=O)[C@@H](OC)/C=C\C=C(/C)C(=O)NC(=CC1=O)C2=O`, the IC50 in the assay with COLO 205 stood at 20 nM; in the assay on LNCaP [1] it was 40 nM; in the assay with LNCaP [2], 40 nM; in assay [3], 25 nM; in assay [4], 20 nM; in the assay with MCF7 it was 30 nM. In the assay with PC-3, the IC50 turned out to be 30 nM.
With `CO[C@H]1/C=C\C=C(/C)C(=O)NC2=CC(=O)C(NCCCC/C=C\[C@]3(O)CC[C@@]4(C)C5CC=C6CC7(CC[C@]6(C)[C@@]5(C)CC[C@@]43C)OCCO7)=C(C[C@H](C)C[C@H](OC)[C@@H](O)[C@H](C)/C=C(\C)C[C@@H]1OC(N)=O)C2=O` (stereo partly specified), the IC50 in the assay with LNCaP [1] was > 1000 nM.
For `CO[C@H]1/C=C\C=C(/C)C(=O)NC2=CC(=O)C(NCCCCC#C[C@]3(O)CC[C@@]4(C)C5CCC6=CC(=O)CC[C@]6(C)[C@@]5(C)CC[C@@]43C)=C(C[C@H](C)C[C@H](OC)[C@@H](O)[C@H](C)/C=C(\C)C[C@@H]1OC(N)=O)C2=O` (stereo partly specified), the IC50 in the assay with COLO 205 came out at 200 nM; in the assay on LNCaP [1] it was 100 nM; in the assay with LNCaP [2] it was 100 nM; in assay [3] it was 40 nM; in assay [4] it was 240 nM; in the assay with MCF7 it was 300 nM. This compound showed an IC50 in the assay on PC-3 of 300 nM.
For `CO[C@H]1/C=C\C=C(/C)C(=O)NC2=CC(=O)C(NCCCCCCC#C[C@]3(O)CC[C@@]4(C)C5CCC6=CC(=O)CC[C@]6(C)[C@@]5(C)CC[C@@]43C)=C(C[C@H](C)C[C@H](OC)[C@@H](O)[C@H](C)/C=C(\C)C[C@@H]1OC(N)=O)C2=O` (stereo partly specified), the IC50 in the assay on LNCaP [1] was > 1000 nM.
Same read-out and setting: the figure for `CO[C@H]1/C=C\C=C(/C)C(=O)NC2=CC(=O)C(NCCCC#C[C@]3(O)CC[C@@]4(C)C5CCC6=CC(=O)CC[C@]6(C)[C@@]5(C)CC[C@@]43C)=C(C[C@H](C)C[C@H](OC)[C@@H](O)[C@H](C)/C=C(\C)C[C@@H]1OC(N)=O)C2=O` (stereo partly specified) is 200 nM.
On the same count and under the same terms, the result for `CO[C@H]1/C=C\C=C(/C)C(=O)NC2=CC(=O)C(NCCC#C[C@]3(O)CC[C@@]4(C)C5CCC6=CC(=O)CC[C@]6(C)[C@@]5(C)CC[C@@]43C)=C(C[C@H](C)C[C@H](OC)[C@@H](O)[C@H](C)/C=C(\C)C[C@@H]1OC(N)=O)C2=O` (stereo partly specified) reads > 1000 nM.
Consider `CO[C@H]1/C=C\C=C(/C)C(=O)NC2=CC(=O)C(NCCCC/C=C/[C@]3(O)CC[C@@]4(C)C5CC=C6CC7(CC[C@]6(C)[C@@]5(C)CC[C@@]43C)OCCO7)=C(C[C@H](C)C[C@H](OC)[C@@H](O)[C@H](C)/C=C(\C)C[C@@H]1OC(N)=O)C2=O` (stereo partly specified), for which, in the assay with LNCaP [1], the IC50 was > 1000 nM.
`CO[C@H]1/C=C\C=C(/C)C(=O)NC2=CC(=O)C(NCCCCCC[C@]3(O)CC[C@@]4(C)C5CC=C6CC7(CC[C@]6(C)[C@@]5(C)CC[C@]34C)OCCO7)=C(C[C@H](C)C[C@H](OC)[C@@H](O)[C@H](C)/C=C(\C)C[C@@H]1OC(N)=O)C2=O` (stereo partly specified): the IC50 in the assay with LNCaP [1] is > 1000 nM.
Same read-out and setting: the result for `CO[C@H]1/C=C\C=C(/C)C(=O)NC2=CC(=O)C(NCCCCCC#C[C@]3(O)CC[C@@]4(C)C5CCC6=CC(=O)CC[C@]6(C)[C@@]5(C)CC[C@@]43C)=C(C[C@H](C)C[C@H](OC)[C@@H](O)[C@H](C)/C=C(\C)C[C@@H]1OC(N)=O)C2=O` (stereo partly specified) reads > 1000 nM.
